pIC50, pKd, pKi: −log10 of the molar value. Several values for one entry are separate records, joined by “and”; a condition that tells them apart may be missing. Equal entries are not always repeated.
How the values were obtained:
BPntase = settings: cited from earlier work
adenylate cyclase = settings: preparations of native adenylate cyclase-containing membranes; P-site inhibitor; read-out: IC50 for inhibition of adenylate cyclase; cited from earlier work
[1] = molecular target: T1, GST-PST (mouse phenol-preferring sulfotransferase fused to GST) (Mus musculus, UniProt P52840); test: Binding of radiolabeled PAP to GST-PST (Scatchard); settings: 100 nM purified GST-PST; Scatchard plot
T1 construct: The PST open reading frame was subcloned into the BamHI and NotI sites of pGEX4T-1; made in house; host or cells: bacteria (pGEX4T-1)
T1 sequence (P52840 whole entry, the tested form may be a part): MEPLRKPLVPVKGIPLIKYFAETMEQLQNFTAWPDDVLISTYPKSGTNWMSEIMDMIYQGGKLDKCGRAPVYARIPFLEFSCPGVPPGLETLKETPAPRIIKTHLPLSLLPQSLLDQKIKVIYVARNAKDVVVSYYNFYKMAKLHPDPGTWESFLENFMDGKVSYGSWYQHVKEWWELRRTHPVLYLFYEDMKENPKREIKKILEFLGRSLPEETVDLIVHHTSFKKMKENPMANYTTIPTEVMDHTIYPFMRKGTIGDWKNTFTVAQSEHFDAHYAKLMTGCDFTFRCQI
Procedure: FIG. 8 is a graph showing binding of PAP to GST-PST. Binding of radiolabeled PAP to 100 nM purified GST-PST was assayed in the presence of various concentrations of unlabeled PAP. […] The data are linear and intersect the y-axis at [Sb]/[Sf]=2.8.
Measurement of intracellular PAP concentrations. A novel isotope binding competition assay was developed to measure intracellular concentrations of PAP. The concentration of PAP in lysates was determined by the binding of radiolabeled PAP to the enzyme phenol (aryl) sulfotransferase (PST), which uses PAP as a cofactor (Yang, 1996b). […] The open reading frame was amplified by PCR using the primers 5′ […] (SEQ ID NO: 15) and 5′ […] (SEQ ID NO: 16) where the underlined sequences correspond to sequence in the PST open reading frame. The PCR product was gel purified and ligated into the pCR2.1 vector. […] The PST open reading frame was subcloned into the BamHI and NotI sites of pGEX4T-1 to create a bacterial expression vector in which PST was expressed in frame downstream of GST (GST-PST). […]
For the assay of intracellular PAP concentrations, appropriate yeast strains were grown in CM/ura^− to mid-log phase (OD600=1.0). […] The amount of soluble protein in this extract was determined using a Bradford dye-binding assay (BioRad, Hercules, Calif., United States of America) with bovine serum albumin as a standard. […]

[2] = system: intracellular PAP in met14Δ cells; assay type: cell-based, S. cerevisiae
Procedure: (§1) Yeast were grown in CM/ura^− containing 2% galactose to mid-log phase. The cultures were washed extensively and resuspended in the CM/ura^−/met^− media with the noted inclusions. PAP was measured using the ligand binding assay described in Experimental Procedures. Intracellular PAP concentrations were normalized to the amount of soluble protein extracted from the cultures.
(§2) For the assay of intracellular PAP concentrations, appropriate yeast strains were grown in CM/ura^− to mid-log phase (OD600=1.0). The cells were centrifuged and washed extensively in sterile water. The cells were resuspended in CM/ura^−/met^− containing methionine (20 μg/ml), lithium, or chlorate as appropriate. The cultures were incubated with shaking at 30° C. At various time points, 2 ml of culture was removed and centrifuged. The cells were washed with 1 ml of water. 250 μl was centrifuged and resuspended in 200 μl K-lysis buffer. 200 μl of glass beads were added, and the cells were disrupted by vigorous bead beating. The amount of soluble protein in this extract was determined using a Bradford dye-binding assay (BioRad, Hercules, Calif., United States of America) with bovine serum albumin as a standard. The remaining 750 μl of washed cells was spun down and resuspended in 250 μl of 2 N HClO4. This was incubated at 4° C. for 20 min, when 250 μl of 1.8 N KOH, 0.4 N KHCO3 were added to neutralize and precipitate the HClO4. The extract was centrifuged at 4° C. to remove the debris, and the supernatant was lyophilized using a rotary evaporator. The dried extracts were frozen at −80° C. for no more than one week prior to use. Extracts were reconstituted in 100 μL of 200 mM HEPES, pH 7.5 and again centrifuged to remove debris. 5′ [^32P] 3′, 5′ PAP was created as described (Spiegelberg, 1999). The GST-PST assay was performed by mixing 10 μL of standard PAP, treated as above, or 10 μL of sample diluted approximately 1:1000 in K-lysis buffer, with 10 μL of radiolabeled PAP (approximately 10,000 CPM). Eighty microliters of a reaction mix containing 100 mM HEPES, pH 7.0, 5 mM DTT, 0.2 mg/ml BSA, and 1 μg of GST-PST were added to start the binding reaction. The reactions were allowed to equilibrate for at least one hour at room temperature. Following incubation, 20 μl of a 50:50 slurry of glutathione sepharose in K-lysis buffer was added. The tubes were incubated with gentle mixing for 10 min at room temperature. The protein with bound PAP was pulled down by centrifugation for 2 min at room temperature. 80 μl of the supernatant, containing free PAP, was removed to a scintillation vial and 200 μl of K-lysis buffer was added to wash the resin. The tubes were centrifuged again and the 200 μl wash was transferred to the original scintillation vials. Radioactivity was determined by adding 5 ml of […] ECONO2™ scintillation fluid (Fisher Scientific, Hampton, N.H., United States of America) and counted in a liquid scintillation counter. The counts were converted to percent isotope bound, and a standard curve was prepared by plotting percent bound vs. the logarithm of the PAP concentration. This standard curve was used to back-calculate the PAP concentration in the unknown samples.
(§3) The GST-PST binding assay was used to determine relative intracellular PAP concentrations in yeast strains grown under various conditions. The PAP concentration determined in the binding assay was normalized to the total soluble protein in parallel extracts, and background was eliminated by reporting only the signal that was sensitive to in vitro degradation by purified recombinant Hal2p. The assay was characterized further by analyzing the intracellular PAP concentration of wild type yeast grown in the presence of lithium.

[3] = system: intracellular PAP in met3Δ cells; assay type: cell-based, S. cerevisiae
Procedure: as §1, §2, §3

cultured IMCD cells = test: cAMP production during stimulation of cultured IMCD cells; assay type: cell-based, mouse; settings: lithium present
[4] = system: intracellular PAP in wild type yeast; test: Intracellular PAP concentration by GST-PST binding assay, wild type yeast; assay type: cell-based, S. cerevisiae
Procedure: as §1
as §2, with “This standard curve was used to back-calculate the PAP concentration in the unknown samples.” left out
The GST-PST binding assay was used to determine relative intracellular PAP concentrations in yeast strains grown under various conditions. The PAP concentration determined in the binding assay was normalized to the total soluble protein in parallel extracts, and background was eliminated by reporting only the signal that was sensitive to in vitro degradation by purified recombinant Hal2p. […]

Wild type yeast = test: Lithium inhibition of yeast growth (OD600), wild type; assay type: cell-based, S. cerevisiae; settings: CM/ura−/met−, 24 hr at 30° C.
Procedure: FIG. 7 is a graph showing met3Δ and met14Δ strains are lithium resistant. Wild type, met3Δ, and met14Δ yeast were resuspended at 5×10^4/ml in CM/ura^− containing 2% dextrose and 1.25 μg/ml methionine. Growth at various concentrations of LiCl was measured after a 24 hr incubation at 30° C. The growth is plotted relative to growth in media lacking lithium.
FIG. 10 is a graph showing methionine supplementation induces lithium resistance. Wild type yeast were inoculated at 5×10^4 cells per ml into synthetic media with or without methionine containing the noted concentration of LiCl. Growth was assayed by spectrophotometry following 48 hrs of growth at 30° C.
Wild type yeast were grown in CM/ura^− containing 2% galactose to mid-log phase. The cultures were washed and resuspended at 5×10^5 cells/ml in CM/ura^−/met^− containing the noted lithium and chlorate concentrations. Following growth for 24 hr at 30° C., the cultures were resuspended, and growth was measured by determining the absorbance at λ=600 nm.
Since methionine effects transcriptional down regulation of the MET3 and MET14 gene products in wild type yeast, the relative lithium sensitivities of the met3Δ and met14Δ strains were assayed in growth media containing reduced methionine (1.25 μg/ml). The use of limited methionine allowed for the comparison of the relative sensitivity to lithium of yeast expressing (wild type) or lacking (met3Δ and met14Δ) PAPS synthetase activities.
The yeast system was used to determine if chlorate could be used to effect a relevant decrease in the accumulation of PAP in the presence of lithium. […] The decrease in PAP accumulation was physiologically relevant since chlorate produced a protective effect in the presence of lithium. […] When 25 mM NaClO3 is included in the culture medium, the growth inhibition is abated, with the IC50 increasing to approximately 80 mM LiCl (FIG. 11)

## Nc1ncnc2c1ncn2[C@@H]1O[C@H](COP(=O)(O)OS(=O)(=O)O)[C@@H](OP(=O)(O)O)[C@H]1O [3′-phosphoadenosine 5′-phosphosulfate]
BPntase; removal of 3′-phosphate
  Vmax of BPntase substrate: 40 µmol/min/mg
BPntase; removal of 3′-phosphate, read-out: Km of BPntase substrate
  Km: 0.5 µM

## Nc1ncnc2c1ncn2[C@@H]1O[C@H](COP(=O)(O)O)[C@@H](OP(=O)(O)O)[C@H]1O [PAP, 3′-phosphoadenosine 5′-phosphate]
Adenylate cyclase
  pIC50: ~4.30
[1]
  pKd: ~7.46 and 7.45

## [O-][Cl+2]([O-])O [chlorate]
[2]; met14Δ expressing hPAPSS2, 100 mM lithium plus 25 mM NaClO3
  Fold PAP accumulation with chlorate: 22.1 fold
[3]; met3Δ expressing hPAPSS2, 100 mM lithium plus 25 mM NaClO3
  Fold PAP accumulation with chlorate: 27.0 fold
Cultured IMCD cells
  Effect of chlorate on accumulation of cAMP: partially restored
[4]; wild type, 100 mM lithium plus 25 mM NaClO3
  Fold PAP accumulation with chlorate: 30.8 fold
[4]; yeast, lithium present
  Effect of chlorate on lithium-dependent PAP accumulation / production: inhibited production of PAP in vivo
Wild type yeast
  Effect of chlorate on sensitivity of yeast growth to lithium: reduces sensitivity

## O=P(O)(O)O[C@H]1[C@H](O)[C@@H](O)[C@H](OP(=O)(O)O)[C@@H](O)[C@H]1O [inositol 1,4-bisphosphate]
BPntase; read-out: Ki, competitive inhibition of BPntase
  pKi: 4.82

## CSCC[C@H](N)C(=O)O [methionine]
[2]; met14Δ expressing hPAPSS2 from galactose-inducible vector, lithium present
  Effect of methionine on PAP accumulation: little effect
[3]; met3Δ expressing hPAPSS2 from galactose-inducible vector, lithium present
  Effect of methionine on PAP accumulation: little effect
[4]; wild type, lithium present, methionine 20 μg/ml in media
  Intracellular PAP concentration with methionine: 2.3 nmol/mg
